One may read the LD50 as the dose at which mortality reaches 50%. As a reminder, the pIC50 is the negative decadic logarithm of the IC50, by convention in mol/L.

pIC50: −log10 of the molar value. Values after ≈ are worked out from the molar mass of the structure shown. Like-named read-outs stand apart in the source and are kept apart here.

The results in this text go back to patent US4109000A, “5-Benzylpicolinic acid derivatives” (Nippon Shinyaku Co., Ltd., priority 1975, dated 1978).

Data set [1] in a line: acute toxicity (LD50), intraperitoneal, ddY male mice. Conditions: mouse, in vivo, ip, ddY male mice (6 weeks age). Here is the method: The pharmacological action of the product of the present invention can be conventionally observed as follows: 50 mg/kg of a sample was administered orally to spontaneously hypertensive rats (male 20-40 weeks age) and percent decrease in blood pressure after 1, 2, 3 and 5 hours was determined, using the known fusaric acid as a reference. Acute toxicity of the compounds was determined by introperitoneal administration of the samples to ddY male mice (6 weeks age), followed by calculation of the values after observation for one week. The results are as follows:

The target of the next data set is T1, dopamine-β-hydroxylase (Bos taurus, UniProt P15101).
T1 sequence (P15101 1-610): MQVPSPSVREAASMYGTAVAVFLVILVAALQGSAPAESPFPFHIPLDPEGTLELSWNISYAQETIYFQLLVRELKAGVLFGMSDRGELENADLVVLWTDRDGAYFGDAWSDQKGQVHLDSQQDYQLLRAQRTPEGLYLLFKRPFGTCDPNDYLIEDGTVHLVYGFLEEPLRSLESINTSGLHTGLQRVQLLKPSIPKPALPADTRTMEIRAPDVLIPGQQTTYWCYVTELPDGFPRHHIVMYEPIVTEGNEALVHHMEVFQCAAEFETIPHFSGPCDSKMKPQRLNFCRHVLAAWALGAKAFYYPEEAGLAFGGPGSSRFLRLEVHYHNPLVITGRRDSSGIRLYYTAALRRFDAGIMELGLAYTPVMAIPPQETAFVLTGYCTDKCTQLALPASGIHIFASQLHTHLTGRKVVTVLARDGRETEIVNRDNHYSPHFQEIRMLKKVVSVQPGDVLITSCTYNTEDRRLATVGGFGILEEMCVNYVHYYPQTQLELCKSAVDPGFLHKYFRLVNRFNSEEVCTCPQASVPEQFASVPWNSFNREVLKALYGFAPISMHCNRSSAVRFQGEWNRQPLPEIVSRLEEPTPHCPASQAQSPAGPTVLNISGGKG
As to the kind of experiment: dopamine-β-hydroxylase inhibitory activity. The format is biochemical.

Data set [2] relates to spontaneously hypertensive rats. As to the kind of experiment: percent decrease in blood pressure in spontaneously hypertensive rats, oral. The format is in vivo, spontaneously hypertensive rats (male). Conditions: for % Decrease in blood pressure, 1hr.: after 1 hr; for % Decrease in blood pressure, 2hrs.: after 2 hrs; for % Decrease in blood pressure, 3hrs.: after 3 hrs; for inhibition in vivo at 50 mg/kg: Rattus norvegicus, po, read-out: % Decrease in blood pressure, 5hrs. Here is the method:
The pharmacological action of the product of the present invention can be conventionally observed as follows: 50 mg/kg of a sample was administered orally to spontaneously hypertensive rats (male 20-40 weeks age) and percent decrease in blood pressure after 1, 2, 3 and 5 hours was determined, using the known fusaric acid as a reference. Acute toxicity of the compounds was determined by introperitoneal administration of the samples to ddY male mice (6 weeks age), followed by calculation of the values after observation for one week.

[3] abbreviates: observation for one week (second table), read-out: LD50 (i.p.).
The mark [4] stands for this setting: intraperitoneal, observation for one week (first table), read-out: LD50.
Where [5] appears, read: 50 mg/kg orally, spontaneously hypertensive rats (male 20-40 weeks).
Where [6] appears, read: 50 mg/kg orally, spontaneously hypertensive rats (male 20-40 weeks), after 5 hrs.

In the case of `O=C(O)c1ccc(Cc2ccccc2O)cn1` [5-(2-Hydroxybenzyl)-picolinic Acid], in data set [1] (setting [3]), the LD50 at 168 h worked out at 354 mg/kg. For the same compound, the pIC50 at dopamine-β-hydroxylase is 7.04.
For `COc1ccccc1Cc1ccc(C(=O)O)nc1` [5-(2-Methoxybenzyl)-picolinie acid, 5-(2-Methoxybenzyl)picolinic acid], in data set [1] (setting [4]), the LD50 at 168 h is 177 mg/kg. For the same compound, in data set [2] (setting [5]), the “% Decrease in blood pressure, 1hr.” value is given as 25.9%; the “% Decrease in blood pressure, 2hrs.” value came to 26.9%; the “% Decrease in blood pressure, 3hrs.” value amounted to 26.0%. In data set [2] (setting [6]), the inhibition in vivo at 50 mg/kg was found to be 25.5%.
As to `O=C(O)c1ccc(Cc2ccc(O)c(O)c2)cn1` [5-(3,4-Dihydroxybenzyl)-picolinic Acid, 5-(3,4-dihydroxybenzyl)picolinic acid], the LD50 at 168 h in data set [1] (setting [3]) worked out at 561 mg/kg. At dopamine-β-hydroxylase, this compound showed a pIC50 of 7.45.
At dopamine-β-hydroxylase, `Nc1ccc(Cc2ccc(C(=O)O)nc2)cc1` [5-(4-Aminobenzyl)-picolinic Acid] showed a pIC50 of 6.48.
Turning to `O=C(O)c1ccc(Cc2ccc(Cl)cc2)cn1` [5-(4-Chlorobenzyl)-picolinic acid, 5-(4-Chlorobenzyl)picolinic acid], in data set [1] (setting [4]), the LD50 at 168 h was 120 mg/kg. Moreover, in data set [2] (setting [5]), the “% Decrease in blood pressure, 1hr.” value is 26.4%; the “% Decrease in blood pressure, 2hrs.” value stood at 42.1%; the “% Decrease in blood pressure, 3hrs.” value is 48.6%. Moreover, the inhibition in vivo at 50 mg/kg in data set [2] (setting [6]) was 50.3%.
For `O=C(O)c1ccc(Cc2ccc(O)cc2)cn1` [5-(4-Hydroxybenzyl)-picolinic Acid, 5-(4-hydroxybenzyl)picolinic acid], the LD50 at 168 h in data set [1] (setting [3]) is 193 mg/kg. This compound gave an ID50 on dopamine-β-hydroxylase (dopamine-β-hydroxylase inhibition) of 8.9 ng/mL (≈ 0.0388 µM).
`COc1ccc(Cc2ccc(C(=O)O)nc2)cc1` [5-(4-Methoxybenzyl)-picolinic acid, 5-(4-methoxybenzyl)picolinic acid]: the LD50 at 168 h in data set [1] (setting [4]) came to 132 mg/kg. Further, in data set [2] (setting [5]), the “% Decrease in blood pressure, 1hr.” value is recorded as 24.8%; the “% Decrease in blood pressure, 2hrs.” value is given as 28.1%; the “% Decrease in blood pressure, 3hrs.” value is 23.4%. The inhibition in vivo at 50 mg/kg in data set [2] (setting [6]) was 21.9%.
On to `O=C(O)c1ccc(Cc2ccc([N+](=O)[O-])cc2)cn1` [5-(4-Nitrobenzyl)-picolinic acid, 5-(4-nitrobenzyl)picolinic acid], for which the LD50 at 168 h in data set [1] (setting [4]) came to 177 mg/kg. Also, the inhibition in vivo at 50 mg/kg in data set [2] (setting [6]) was 39.8%.
On the same counts, the results for `O=C(NCc1ccccc1)c1ccc(Cc2ccccc2)cn1` [5-Benzylpicolinic acid N-benzylamide] are 707 mg/kg and 27.1%.
`O=C(O)c1ccc(Cc2ccccc2)cn1` [5-Benzylpicolinic acid, 5-benzylpicolinic acid]: the LD50 at 168 h in data set [1] (setting [4]) is 138 mg/kg. In addition, in data set [2] (setting [5]), the “% Decrease in blood pressure, 1hr.” value worked out at 12.7%; the “% Decrease in blood pressure, 2hrs.” value was 19.0%; the “% Decrease in blood pressure, 3hrs.” value is reported as 24.9%. Further, the inhibition in vivo at 50 mg/kg in data set [2] (setting [6]) was found to be 29.5%.
As for `CCOC(=O)c1ccc(Cc2ccc(O)cc2)cn1` [Ethyl 5-(4-hydroxybenzyl)-picolinate, ethyl 5-(4-hydroxybenzyl)picolinate], in data set [1] (setting [3]), the LD50 at 168 h was found to be 594 mg/kg. This compound gave a pIC50 against dopamine-β-hydroxylase of 7.56.
Take `CCOC(=O)c1ccc(Cc2ccccc2)cn1.Cl` [Ethyl 5-benzylpicolinate (Hydrochloride), ethyl 5-benzylpicolinate hydrochloride]: in data set [1] (setting [4]), the LD50 at 168 h turned out to be 140 mg/kg. Besides, in data set [2] (setting [6]), the inhibition in vivo at 50 mg/kg was 32.4%.
Turning to `CCCCc1ccc(C(=O)O)nc1` [Fusaric acid, reference compound], the LD50 at 168 h in data set [1] (setting [4]) worked out at 80 mg/kg. In data set [2] (setting [5]), the “% Decrease in blood pressure, 1hr.” value stood at 15.6%; the “% Decrease in blood pressure, 2hrs.” value was found to be 21.3%; the “% Decrease in blood pressure, 3hrs.” value worked out at 16.5%. Moreover, in data set [2] (5 h), the inhibition in vivo at 50 mg/kg was found to be 21%. This compound also had a pIC50 against dopamine-β-hydroxylase of 7.08.
For `COC(=O)c1ccc(Cc2ccc(O)cc2)cn1` [Methyl 5-(4-hydroxybenzyl)-picolinate, methyl 5-(4-hydroxybenzyl)-picolinate], the LD50 at 168 h in data set [1] (setting [3]) was 1000 mg/kg. For the same compound, the pIC50 against dopamine-β-hydroxylase was 7.54.
As for `COC(=O)c1ccc(Cc2ccccc2)cn1` [Methyl 5-benzylpicolinate], the LD50 at 168 h in data set [1] (setting [4]) turned out to be 88 mg/kg. Also, the inhibition in vivo at 50 mg/kg in data set [2] (setting [6]) was determined as 48.8%.
At dopamine-β-hydroxylase, `O=C(O)c1ccccn1` [Picolinic Acid] gave a pIC50 of 5.09.
